# What was measured:
# Type in all cases: functional, cell-free
# [1] = Antioxidant activity against Cu2+-induced lipid peroxidation in human plasma LDL assessed as vitamin E consumption at 10 umol/L preincubated for 1 hr before Cu2+ challenge measured after 120 mins
# [2] = Antioxidant activity against Cu2+-induced lipid peroxidation in human plasma LDL assessed as vitamin E consumption at 20 umol/L preincubated for 1 hr before Cu2+ challenge measured after 45 mins
# [3] = Antioxidant activity against Cu2+-induced lipid peroxidation in human plasma LDL assessed as maximal compound concentration at 5 umol/L preincubated for 1 hr before Cu2+ challenge measured after 90 mins relative to compound present at 0 min
# [4] = Antioxidant activity against Cu2+-induced lipid peroxidation in human plasma LDL assessed as conjugated diene formation at 5 umol/L preincubated for 1 hr before Cu2+ challenge measured after 150 mins
# [5] = Antioxidant activity against Cu2+-induced lipid peroxidation in human plasma LDL assessed as maximal compound concentration at 10 umol/L preincubated for 1 hr before Cu2+ challenge measured after 15 mins relative to compound present at 0 min
# [6] = Antioxidant activity against Cu2+-induced lipid peroxidation in human plasma LDL assessed as lysophosphatidylcholine formation at 5 umol/L preincubated for 1 hr before Cu2+ challenge measured after 150 mins
# [7] = Antioxidant activity against Cu2+-induced lipid peroxidation in human plasma LDL assessed as maximal compound concentration at 5 umol/L preincubated for 1 hr before Cu2+ challenge measured after 60 mins relative to compound present at 0 min
# [8] = Antioxidant activity against Cu2+-induced lipid peroxidation in human plasma LDL assessed as maximal compound concentration at 20 umol/L preincubated for 1 hr before Cu2+ challenge measured after 270 mins relative to compound present at 0 min
# [9] = Antioxidant activity against Cu2+-induced lipid peroxidation in human plasma LDL assessed as conjugated diene formation at 5 umol/L preincubated for 1 hr before Cu2+ challenge measured after 360 mins
# [10] = Antioxidant activity against Cu2+-induced lipid peroxidation in human plasma LDL assessed as vitamin E consumption at 10 umol/L preincubated for 1 hr before Cu2+ challenge measured after 30 mins
# [11] = Antioxidant activity against Cu2+-induced lipid peroxidation in human plasma LDL assessed as vitamin E consumption at 5 umol/L preincubated for 1 hr before Cu2+ challenge measured after 90 mins
# [12] = Antioxidant activity against Cu2+-induced lipid peroxidation in human plasma LDL assessed as lysophosphatidylcholine formation at 5 umol/L preincubated for 1 hr before Cu2+ challenge measured after 90 mins
# [13] = Antioxidant activity against Cu2+-induced lipid peroxidation in human plasma LDL assessed as maximal compound concentration at 20 umol/L preincubated for 1 hr before Cu2+ challenge measured after 150 mins relative to compound present at 0 min
# [14] = Antioxidant activity against Cu2+-induced lipid peroxidation in human plasma LDL assessed as lysophosphatidylcholine formation at 10 umol/L preincubated for 1 hr before Cu2+ challenge measured after 150 mins
# [15] = Antioxidant activity against Cu2+-induced lipid peroxidation in human plasma LDL assessed as lysophosphatidylcholine formation at 10 umol/L preincubated for 1 hr before Cu2+ challenge measured after 120 mins
# [16] = Antioxidant activity against Cu2+-induced lipid peroxidation in human plasma LDL assessed as maximal compound concentration at 10 umol/L preincubated for 1 hr before Cu2+ challenge measured after 30 mins relative to compound present at 0 min
# [17] = Antioxidant activity against Cu2+-induced lipid peroxidation in human plasma LDL assessed as vitamin E consumption at 20 umol/L preincubated for 1 hr before Cu2+ challenge measured after 15 mins
# [18] = Antioxidant activity against Cu2+-induced lipid peroxidation in human plasma LDL assessed as vitamin E consumption at 5 umol/L preincubated for 1 hr before Cu2+ challenge measured after 30 mins
# [19] = Antioxidant activity against Cu2+-induced lipid peroxidation in human plasma LDL assessed as conjugated diene formation at 5 umol/L preincubated for 1 hr before Cu2+ challenge measured after 120 mins
# [20] = Antioxidant activity against Cu2+-induced lipid peroxidation in human plasma LDL assessed as vitamin E consumption at 5 umol/L preincubated for 1 hr before Cu2+ challenge measured after 60 mins
# [21] = Antioxidant activity against Cu2+-induced lipid peroxidation in human plasma LDL assessed as lysophosphatidylcholine formation at 10 umol/L preincubated for 1 hr before Cu2+ challenge measured after 180 mins
# [22] = Antioxidant activity against Cu2+-induced lipid peroxidation in human plasma LDL assessed as vitamin E consumption at 10 umol/L preincubated for 1 hr before Cu2+ challenge measured after 45 mins
# [23] = Antioxidant activity against Cu2+-induced lipid peroxidation in human plasma LDL assessed as lysophosphatidylcholine formation at 20 umol/L preincubated for 1 hr before Cu2+ challenge measured after 120 mins
# [24] = Antioxidant activity against Cu2+-induced lipid peroxidation in human plasma LDL assessed as maximal compound concentration at 10 umol/L preincubated for 1 hr before Cu2+ challenge measured after 210 mins relative to compound present at 0 min
# [25] = Antioxidant activity against Cu2+-induced lipid peroxidation in human plasma LDL assessed as vitamin E consumption at 10 umol/L preincubated for 1 hr before Cu2+ challenge measured after 150 mins
# [26] = Antioxidant activity against Cu2+-induced lipid peroxidation in human plasma LDL assessed as maximal compound concentration at 10 umol/L preincubated for 1 hr before Cu2+ challenge measured after 120 mins relative to compound present at 0 min
# [27] = Antioxidant activity against Cu2+-induced lipid peroxidation in human plasma LDL assessed as vitamin E consumption at 10 umol/L preincubated for 1 hr before Cu2+ challenge measured after 180 mins
# [28] = Antioxidant activity against Cu2+-induced lipid peroxidation in human plasma LDL assessed as maximal compound concentration at 5 umol/L preincubated for 1 hr before Cu2+ challenge measured after 180 mins relative to compound present at 0 min
# [29] = Antioxidant activity against Cu2+-induced lipid peroxidation in human plasma LDL assessed as vitamin E consumption at 20 umol/L preincubated for 1 hr before Cu2+ challenge measured after 150 mins
# [30] = Antioxidant activity against Cu2+-induced lipid peroxidation in human plasma LDL assessed as maximal compound concentration at 5 umol/L preincubated for 1 hr before Cu2+ challenge measured after 45 mins relative to compound present at 0 min
# [31] = Antioxidant activity against Cu2+-induced lipid peroxidation in human plasma LDL assessed as lysophosphatidylcholine formation at 20 umol/L preincubated for 1 hr before Cu2+ challenge measured after 210 mins
# [32] = Antioxidant activity against Cu2+-induced lipid peroxidation in human plasma LDL assessed as vitamin E consumption at 20 umol/L preincubated for 1 hr before Cu2+ challenge measured after 30 mins
# [33] = Antioxidant activity against Cu2+-induced lipid peroxidation in human plasma LDL assessed as conjugated diene formation at 5 umol/L preincubated for 1 hr before Cu2+ challenge measured after 60 mins
smiles,measurement,setting,value
CC(C)(Sc1cc(C(C)(C)C)c(O)c(C(C)(C)C)c1)Sc1cc(C(C)(C)C)c(O)c(C(C)(C)C)c1,Activity,[1],0%
same,Activity,[2],7.5%
same,Activity,[3],55.3%
same,Activity,[4],78.3%
same,Activity,[5],86.6%
same,Activity,[6],17.5%
same,Activity,[7],118%
same,Activity,[8],34.6%
same,Activity,[9],100%
same,Activity,[10],17.8%
same,Activity,[11],0%
same,Activity,[12],4.1%
same,Activity,[13],41.2%
same,Activity,[14],3%
same,Activity,[15],1.3%
same,Activity,[16],82%
same,Activity,[17],38.2%
same,Activity,[18],15.5%
same,Activity,[19],78.6%
same,Activity,[20],0%
same,Activity,[21],6.2%
same,Activity,[22],11%
same,Activity,[23],1%
same,Activity,[24],21.6%
same,Activity,[25],0%
same,Activity,[26],37.2%
same,Activity,[27],0%
same,Activity,[28],45.3%
same,Activity,[29],0%
same,Activity,[30],114%
same,Activity,[31],1.4%
same,Activity,[32],19.9%
same,Activity,[33],4.1%
